From patent publication US9169254B2, “Spiroimidazolone derivative” (Chugai Seiyaku Kabushiki Kaisha, priority 2009, dated 2015)

The compounds below were run against T1, human PTH1 receptor (Homo sapiens, UniProt Q03431) (assay: In vitro cAMP signal activity in HKRK-B7 cells (LLC-PK1 cells overexpressing the human PTH1 receptor)). Conditions: HKRK-B7 cells; compound at 1×10^−3 M; […]; 0.1 µM.
T1 sequence (Q03431 27-593): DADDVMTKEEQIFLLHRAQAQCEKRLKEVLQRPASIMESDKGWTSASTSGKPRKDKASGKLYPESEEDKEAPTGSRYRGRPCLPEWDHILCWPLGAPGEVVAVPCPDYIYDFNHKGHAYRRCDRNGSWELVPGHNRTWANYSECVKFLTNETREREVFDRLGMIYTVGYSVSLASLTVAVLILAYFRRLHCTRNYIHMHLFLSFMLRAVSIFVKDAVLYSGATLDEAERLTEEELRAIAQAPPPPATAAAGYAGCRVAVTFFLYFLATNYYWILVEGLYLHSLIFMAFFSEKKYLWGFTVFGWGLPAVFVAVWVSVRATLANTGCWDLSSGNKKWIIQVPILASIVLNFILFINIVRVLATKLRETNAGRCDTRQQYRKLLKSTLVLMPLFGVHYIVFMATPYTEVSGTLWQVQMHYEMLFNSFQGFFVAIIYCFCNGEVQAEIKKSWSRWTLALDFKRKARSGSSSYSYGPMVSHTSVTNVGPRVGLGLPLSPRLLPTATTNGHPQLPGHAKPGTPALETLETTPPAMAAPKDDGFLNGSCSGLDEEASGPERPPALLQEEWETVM
Type: cell-based
With `Cc1cc(N(C)C(=O)OCCN(C)C)ccc1/C=C/S(=O)(=O)N1CCC2(CC1)N=C(c1cccc(OC(F)(F)F)c1)NC2=O` [Compound 466, Methyl-(3-methyl-4-{(E)-2-[4-oxo-2-(3-trifluoromethoxy-phenyl)-1,3,8-triaza-spiro[4.5]dec-1-ene-8-sulfonyl]-vinyl}-phenyl)-carbamic acid 2-dimethylamino-ethyl ester] the “cAMP production activity (%)” value was 23%.

Same assay, conditions: HKRK-B7 cells; compound at 1×10^−3 M; cAMP produced as percentage of that produced by hPTH(1-34) at 100 nM
In the case of `CC(C)(C)C1=NC2(CCN(S(=O)(=O)c3cccc(Cl)c3)CC2)C(=O)N1` [Compound 16, 2-tert-butyl-8-(3-chloro-benzenesulfonyl)-1,3,8-triaza-spiro[4.5]dec-1-en-4-one], the “cAMP production activity (%)” value is reported as 41%.
For `Cc1cc(N2C(=O)CNC2=O)ccc1CCS(=O)(=O)N1CCC2(CC1)N=C(C1CCC(/C=C/C(F)F)CC1)NC2=O` (stereo not shown) [Compound 945, 3-[4-(2-{2-[4-((E)-3,3-difluoro-propenyl)-cyclohexyl]-4-oxo-1,3,8-triaza-spiro[4.5]dec-1-ene-8-sulfonyl}-ethyl)-3-methyl-phenyl]-imidazolidine-2,4-dione], the “cAMP production activity (%)” value was 77%.
With `CC(=O)Nc1ccc(CCS(=O)(=O)N2CCC3(CC2)N=C([C@H]2CC[C@H](OCCCF)CC2)NC3=O)c(C)c1` [Compound 915, N-[4-(2-{2-[4-(3-fluoro-propoxy)-cyclohexyl]-4-oxo-1,3,8-triaza-spiro[4.5]dec-1-ene-8-sulfonyl}-ethyl)-3-methyl-phenyl]-acetamide] the “cAMP production activity (%)” value was 61%.
`Cc1cc(CNC(=O)OC(C)(C)C)ccc1CCS(=O)(=O)N1CCC2(CC1)N=C(C(C)(C)C)NC2=O` [Compound 162, {4-[2-(2-tert-Butyl-4-oxo-1,3,8-triaza-spiro[4.5]dec-1-ene-8-sulfonyl)-ethyl]-3-methyl-benzyl}-carbamic acid tert-butyl ester] was tested, and the “cAMP production activity (%)” value was 43%.
`Cc1cc(NCCO)ccc1CCS(=O)(=O)N1CCC2(CC1)N=C(c1ccc(C(F)(F)F)cc1)NC2=O` [Compound 161, 8-{2-[4-(2-hydroxy-ethylamino)-2-methyl-phenyl]-ethanesulfonyl}-2-(4-trifluoromethyl-phenyl)-1,3,8-triaza-spiro[4.5]dec-1-en-4-one] was tested, and the “cAMP production activity (%)” value was 69%.
`Cc1cc(C(=O)N2CCC(C)(O)CC2)cc(C)c1CCS(=O)(=O)N1CCC2(CC1)N=C(c1ccc(F)c(C(F)(F)F)c1)NC2=O` [Compound 803, 2-(4-fluoro-3-trifluoromethyl-phenyl)-8-{2-[4-(4-hydroxy-4-methyl-piperidine-1-carbonyl)-2,6-dimethyl-phenyl]-ethanesulfonyl}-1,3,8-triaza-spiro[4.5]dec-1-en-4-one] was tested, and the “cAMP production activity (%)” value was 103%.
With `Cc1cc(N2NCCC2=O)ccc1/C=C/S(=O)(=O)N1CCC2(CC1)N=C([C@H]1CC[C@H](C)CC1)NC2=O` [Compound 588, 2-(4-methyl-cyclohexyl)-8-{(E)-2-[2-methyl-4-(5-oxo-pyrazolidin-1-yl)-phenyl]-ethenesulfonyl}-1,3,8-triaza-spiro[4.5]dec-1-en-4-one] the “cAMP production activity (%)” value was 77%.
`O=C1NC(c2ccc(Cl)cc2)=NC12CCN(S(=O)(=O)/C=C/c1cccc3c1ccn3C[C@H](O)CO)CC2` [Compound 250, 2-(4-chloro-phenyl)-8-{(E)-2-[1-((S)-2,3-dihydroxy-propyl)-1H-indol-4-yl]-ethenesulfonyl}-1,3,8-triaza-spiro[4.5]dec-1-en-4-one] was tested, and the “cAMP production activity (%)” value was 62%.
`CN(C)C(=O)c1ccc(CCS(=O)(=O)N2CCC3(CC2)N=C(c2cccc(OC(F)(F)F)c2)NC3=O)c(F)c1` [Compound 293, 3-fluoro-N,N-dimethyl-4-{2-[4-oxo-2-(3-trifluoromethoxy-phenyl)-1,3,8-triaza-spiro[4.5]dec-1-ene-8-sulfonyl]-ethyl}-benzamide] was tested, and the “cAMP production activity (%)” value was 38%.
`Cc1cc(C(=O)N(C)C)ccc1CCS(=O)(=O)N1CCC2(CC1)N=C(c1cccc(Br)c1)NC2=O` [Compound 91, 4-{2-[2-(3-bromo-phenyl)-4-oxo-1,3,8-triaza-spiro[4.5]dec-1-ene-8-sulfonyl]-ethyl}-3,N,N-trimethyl-benzamide] was tested, and the “cAMP production activity (%)” value was 73%.
With `O=C1NC(C2CCCCC2)=NC12CCN(S(=O)(=O)c1cccs1)CC2` [Compound 56, 2-cyclohexyl-8-(thiophene-2-sulfonyl)-1,3,8-triaza-spiro[4.5]dec-1-en-4-one] the “cAMP production activity (%)” value was 55%.
In the case of `Cc1cc(N(C)C(N)=O)cc(C)c1CCS(=O)(=O)N1CCC2(CC1)N=C(CCCCCCCCCCC1(C)COC1)NC2=O` [Compound 1032, 1-[3,5-dimethyl-4-(2-{2-[10-(3-methyl-oxetan-3-yl)-decyl]-4-oxo-1,3,8-triaza-spiro[4.5]dec-1-ene-8-sulfonyl}-ethyl)-phenyl]-1-methyl-urea], the “cAMP production activity (%)” value is reported as 88%.
In the case of `Cc1cc(N(C)C(N)=O)cc(C)c1CCS(=O)(=O)N1CCC2(CC1)N=C(CCCCCCCC(F)(F)C(F)(F)F)NC2=O` [Compound 1302, 1-(3,5-dimethyl-4-{2-[4-oxo-2-(8,8,9,9,9-pentafluoro-nonyl)-1,3,8-triaza-spiro[4.5]dec-1-ene-8-sulfonyl]-ethyl}-phenyl)-1-methyl-urea], the “cAMP production activity (%)” value is reported as 95%.
`Cc1cc(N(C)c2c(N(C)C)c(=O)c2=O)cc(C)c1CCS(=O)(=O)N1CCC2(CC1)N=C([C@H]1CC[C@H](C)CC1)NC2=O` [Compound 1369, 3-Dimethylamino-4-[(3,5-dimethyl-4-{2-[2-(4-methyl-cyclohexyl)-4-oxo-1,3,8-triaza-spiro[4.5]dec-1-ene-8-sulfonyl]-ethyl}-phenyl)-methyl-amino]-cyclobut-3-ene-1,2-dione] was tested, and the “cAMP production activity (%)” value was 30%.
In the case of `Cc1cc(N2CCOCC2=O)ccc1/C=C/S(=O)(=O)N1CCC2(CC1)N=C(c1cccc(OC(F)(F)F)c1)NC2=O` [Compound 617, 8-{(E)-2-[2-methyl-4-(3-oxo-morpholin-4-yl)-phenyl]-ethenesulfonyl}-2-(3-trifluoromethoxy-phenyl)-1,3,8-triaza-spiro[4.5]dec-1-en-4-one], the “cAMP production activity (%)” value is reported as 96%.
With `Cc1cc(N(C)C(N)=O)cc(C)c1/C=C/S(=O)(=O)N1CCC2(CC1)N=C(CCCCCc1ccccc1)NC2=O.O=C(O)C(F)(F)F` [Compound 1133, 1-(3,5-Dimethyl-4-{(E)-2-[4-oxo-2-(5-phenyl-pentyl)-1,3,8-triaza-spiro[4.5]dec-1-ene-8-sulfonyl]-vinyl}-phenyl)-1-methyl-urea trifluoroacetate] the “cAMP production activity (%)” value was 113%.
For `O=C(NCc1ccccc1)c1cccc(C2=NC3(CCN(S(=O)(=O)c4cccc(Cl)c4)CC3)C(=O)N2)c1` [Compound 350, N-benzyl-3-[8-(3-chloro-benzenesulfonyl)-4-oxo-1,3,8-triaza-spiro[4.5]dec-1-en-2-yl]-benzamide], the “cAMP production activity (%)” value was 5.5%.
In the case of `CCOCCCCCCC1=NC2(CCN([S@TB18](=O)(=O)/C=C/c3c(C)cc(N(C)C(N)=O)cc3C)CC2)C(=O)N1` [Compound 1115, 1-(4-{(E)-2-[2-(6-ethoxy-hexyl)-4-oxo-1,3,8-triaza-spiro[4.5]dec-1-ene-8-sulfonyl]-vinyl}-3,5-dimethyl-phenyl)-1-methyl-urea], the “cAMP production activity (%)” value is reported as 140%.
With `O=C1NC(C2CCCCC2)=NC12CCN(S(=O)(=O)CCc1cccc3[nH]c(=O)oc13)CC2` [Compound 261, 2-Cyclohexyl-8-[2-(2-oxo-2,3-dihydro-benzoxazol-7-yl)-ethanesulfonyl]-1,3,8-triaza-spiro[4.5]dec-1-en-4-one] the “cAMP production activity (%)” value was 70%.
For `Cc1cc(S(=O)(=O)NCC(F)(F)F)ccc1CCS(=O)(=O)N1CCC2(CC1)N=C(c1cccc(C(F)(F)F)c1)NC2=O` [Compound 290, 3-methyl-4-{2-[4-oxo-2-(3-trifluoromethyl-phenyl)-1,3,8-triaza-spiro[4.5]dec-1-ene-8-sulfonyl]-ethyl}-N-(2,2,2-trifluoro-ethyl)-benzenesulfonamide], the “cAMP production activity (%)” value was 76%.
In the case of `Cc1cc(C(=O)N(C)C)ccc1-c1cccc(S(=O)(=O)N2CCC3(CC2)N=C(c2cccc(OC(F)(F)F)c2)NC3=O)c1` [Compound 335, 2-methyl-3′-[4-oxo-2-(3-trifluoromethoxy-phenyl)-1,3,8-triaza-spiro[4.5]dec-1-ene-8-sulfonyl]-biphenyl-4-carboxylic acid dimethylamide], the “cAMP production activity (%)” value is reported as 28%.
For `Cc1cc(N2C(=O)CNC2=O)ccc1CCS(=O)(=O)N1CCC2(CC1)N=C(C1CCC(CCC(F)(F)F)CC1)NC2=O` (stereo not shown) [Compound 943, 3-[3-Methyl-4-(2-{4-oxo-2-[4-(3,3,3-trifluoro-propyl)-cyclohexyl]-1,3,8-triaza-spiro[4.5]dec-1-ene-8-sulfonyl}-ethyl)-phenyl]-imidazolidine-2,4-dione], the “cAMP production activity (%)” value was 74%.
With `O=C1NC(C2CCC(CCC(F)(F)F)CC2)=NC12CCN(S(=O)(=O)/C=C/c1cccc3c1ccn3CCOC[C@H](O)[C@@H](O)CO)CC2` (stereo partly drawn) [Compound 706, 2-[4-(3,3,3-trifluoro-propyl)-cyclohexyl]-8-((E)-2-{1-[2-((2S,3S)-2,3,4-trihydroxy-butoxy)-ethyl]-1H-indol-4-yl}-ethenesulfonyl)-1,3,8-triaza-spiro[4.5]dec-1-en-4-one] the “cAMP production activity (%)” value was 90%.
For `CC(C)COC(=O)N1CCCC(C2=NC3(CCN(S(=O)(=O)c4cccc(Cl)c4)CC3)C(=O)N2)C1` (stereo not shown) [Compound 462, 3-[8-(3-chloro-benzenesulfonyl)-4-oxo-1,3,8-triaza-spiro[4.5]dec-1-en-2-yl]-piperidine-1-carboxylic acid isobutyl ester], the “cAMP production activity (%)” value was 47%.
